Assay results reported in patent US20120245137A1 (Zalicus Pharmaceuticals Ltd., priority 2009, published 2012).
Read-outs that look alike come from different tables or passages of the source.

Experiments:
Type in all cases: cell-based
Human Cav 2.2 channels = Human Cav 2.2 channels (Homo sapiens, UniProt Q00975); test: Fluorescent assay for CaV2.2 channels using potassium depolarization (VIPR/FLIPR); details: FLIPR data
Summary of the method: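 Fluo-4 calcium fluorescence (480/535 nm) was recorded on VIPR or FLIPR after depolarization to 70 mM final potassium. Before this, cells were preincubated 30 min at 25 °C with compound in 4–30 mM potassium, so that state-dependent block could be assessed; the cells were HEK293 coexpressing Cav2.2, α2δ, β and Kir2.3.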

T-type calcium channel [1] = molecular target: T-type calcium channel (Homo sapiens, UniProt O95180); test: T-type channel blocking, FLIPR data (Table 6); details: for CAv3.2 IC50 Ratio closed/inact.: CAv3.2, ratio closed/inact.
Sequence of T-type calcium channel (Homo sapiens, UniProt O95180) (O95180 whole entry): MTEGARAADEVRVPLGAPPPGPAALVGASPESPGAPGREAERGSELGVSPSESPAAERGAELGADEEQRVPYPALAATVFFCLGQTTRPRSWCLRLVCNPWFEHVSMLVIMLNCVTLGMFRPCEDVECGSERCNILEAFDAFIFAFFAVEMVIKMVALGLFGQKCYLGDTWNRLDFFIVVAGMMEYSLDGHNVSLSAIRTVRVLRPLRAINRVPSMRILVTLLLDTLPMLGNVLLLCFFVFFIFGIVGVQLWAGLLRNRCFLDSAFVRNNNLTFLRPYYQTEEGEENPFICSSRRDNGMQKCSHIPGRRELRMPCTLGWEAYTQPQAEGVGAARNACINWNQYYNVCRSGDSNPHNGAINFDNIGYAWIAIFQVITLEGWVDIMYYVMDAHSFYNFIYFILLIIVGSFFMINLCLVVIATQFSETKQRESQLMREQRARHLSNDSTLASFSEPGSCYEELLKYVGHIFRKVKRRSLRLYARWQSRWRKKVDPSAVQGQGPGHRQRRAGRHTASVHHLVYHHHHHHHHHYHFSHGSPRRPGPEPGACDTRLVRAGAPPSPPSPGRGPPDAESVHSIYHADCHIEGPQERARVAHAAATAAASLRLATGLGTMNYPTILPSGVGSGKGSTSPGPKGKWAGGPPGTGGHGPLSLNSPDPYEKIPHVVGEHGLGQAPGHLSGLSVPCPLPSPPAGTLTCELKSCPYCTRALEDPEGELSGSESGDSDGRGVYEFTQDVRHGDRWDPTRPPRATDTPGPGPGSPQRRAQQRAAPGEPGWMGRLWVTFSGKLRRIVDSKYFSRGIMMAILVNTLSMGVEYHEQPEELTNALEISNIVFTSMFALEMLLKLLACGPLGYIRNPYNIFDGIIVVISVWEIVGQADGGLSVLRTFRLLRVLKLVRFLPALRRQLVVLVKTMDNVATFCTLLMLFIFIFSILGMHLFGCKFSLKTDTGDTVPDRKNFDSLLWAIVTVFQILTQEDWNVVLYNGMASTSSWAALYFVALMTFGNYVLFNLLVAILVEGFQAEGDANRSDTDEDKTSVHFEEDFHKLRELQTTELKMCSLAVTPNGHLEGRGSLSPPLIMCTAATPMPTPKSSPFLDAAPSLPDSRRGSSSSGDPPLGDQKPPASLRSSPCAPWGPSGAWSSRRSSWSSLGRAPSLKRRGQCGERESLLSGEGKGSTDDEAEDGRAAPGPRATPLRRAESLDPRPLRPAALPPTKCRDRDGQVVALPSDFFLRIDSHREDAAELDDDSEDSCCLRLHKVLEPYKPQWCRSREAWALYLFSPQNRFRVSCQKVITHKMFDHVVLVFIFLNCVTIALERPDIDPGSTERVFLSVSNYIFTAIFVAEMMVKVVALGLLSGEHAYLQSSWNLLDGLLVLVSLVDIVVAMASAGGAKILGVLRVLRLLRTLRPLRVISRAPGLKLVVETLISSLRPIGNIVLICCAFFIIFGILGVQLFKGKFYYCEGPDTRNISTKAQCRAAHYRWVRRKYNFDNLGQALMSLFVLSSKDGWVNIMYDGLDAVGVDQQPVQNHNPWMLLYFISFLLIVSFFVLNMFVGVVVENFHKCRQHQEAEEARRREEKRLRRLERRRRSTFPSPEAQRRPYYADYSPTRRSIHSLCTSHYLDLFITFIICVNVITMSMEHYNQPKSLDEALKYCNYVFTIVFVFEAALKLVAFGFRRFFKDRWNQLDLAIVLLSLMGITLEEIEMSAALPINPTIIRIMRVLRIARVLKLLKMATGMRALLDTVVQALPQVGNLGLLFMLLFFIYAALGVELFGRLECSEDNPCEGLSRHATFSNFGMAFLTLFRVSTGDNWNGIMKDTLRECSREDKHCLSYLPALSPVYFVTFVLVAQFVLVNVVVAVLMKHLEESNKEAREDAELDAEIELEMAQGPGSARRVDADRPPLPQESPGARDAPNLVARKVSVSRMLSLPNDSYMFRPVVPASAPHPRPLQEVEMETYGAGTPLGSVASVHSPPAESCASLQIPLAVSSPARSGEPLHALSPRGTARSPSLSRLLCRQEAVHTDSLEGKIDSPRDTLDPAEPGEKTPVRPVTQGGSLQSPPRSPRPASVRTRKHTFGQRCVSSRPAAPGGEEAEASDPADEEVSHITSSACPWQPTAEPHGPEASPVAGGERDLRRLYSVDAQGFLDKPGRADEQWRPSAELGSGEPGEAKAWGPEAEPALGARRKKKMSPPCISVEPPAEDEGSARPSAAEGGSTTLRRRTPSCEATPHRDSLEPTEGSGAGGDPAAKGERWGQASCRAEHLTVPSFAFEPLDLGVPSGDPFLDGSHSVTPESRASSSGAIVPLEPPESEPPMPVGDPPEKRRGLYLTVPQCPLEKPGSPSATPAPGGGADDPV
Excerpt: (§1) Another method, high-throughput spectrophotometric assay, utilizes loading of the cell lines with a fluorescent dye sensitive to intracellular calcium concentration and subsequent examination of the effects of compounds on the ability of depolarization by potassium chloride or other means to alter intracellular calcium levels.

T-type calcium channel [2] = molecular target: T-type calcium channel (Homo sapiens, UniProt O43497); test: T-type channel blocking, FLIPR data (Table 6); details: CAv3.1
Sequence of T-type calcium channel (Homo sapiens, UniProt O43497) (O43497 whole entry): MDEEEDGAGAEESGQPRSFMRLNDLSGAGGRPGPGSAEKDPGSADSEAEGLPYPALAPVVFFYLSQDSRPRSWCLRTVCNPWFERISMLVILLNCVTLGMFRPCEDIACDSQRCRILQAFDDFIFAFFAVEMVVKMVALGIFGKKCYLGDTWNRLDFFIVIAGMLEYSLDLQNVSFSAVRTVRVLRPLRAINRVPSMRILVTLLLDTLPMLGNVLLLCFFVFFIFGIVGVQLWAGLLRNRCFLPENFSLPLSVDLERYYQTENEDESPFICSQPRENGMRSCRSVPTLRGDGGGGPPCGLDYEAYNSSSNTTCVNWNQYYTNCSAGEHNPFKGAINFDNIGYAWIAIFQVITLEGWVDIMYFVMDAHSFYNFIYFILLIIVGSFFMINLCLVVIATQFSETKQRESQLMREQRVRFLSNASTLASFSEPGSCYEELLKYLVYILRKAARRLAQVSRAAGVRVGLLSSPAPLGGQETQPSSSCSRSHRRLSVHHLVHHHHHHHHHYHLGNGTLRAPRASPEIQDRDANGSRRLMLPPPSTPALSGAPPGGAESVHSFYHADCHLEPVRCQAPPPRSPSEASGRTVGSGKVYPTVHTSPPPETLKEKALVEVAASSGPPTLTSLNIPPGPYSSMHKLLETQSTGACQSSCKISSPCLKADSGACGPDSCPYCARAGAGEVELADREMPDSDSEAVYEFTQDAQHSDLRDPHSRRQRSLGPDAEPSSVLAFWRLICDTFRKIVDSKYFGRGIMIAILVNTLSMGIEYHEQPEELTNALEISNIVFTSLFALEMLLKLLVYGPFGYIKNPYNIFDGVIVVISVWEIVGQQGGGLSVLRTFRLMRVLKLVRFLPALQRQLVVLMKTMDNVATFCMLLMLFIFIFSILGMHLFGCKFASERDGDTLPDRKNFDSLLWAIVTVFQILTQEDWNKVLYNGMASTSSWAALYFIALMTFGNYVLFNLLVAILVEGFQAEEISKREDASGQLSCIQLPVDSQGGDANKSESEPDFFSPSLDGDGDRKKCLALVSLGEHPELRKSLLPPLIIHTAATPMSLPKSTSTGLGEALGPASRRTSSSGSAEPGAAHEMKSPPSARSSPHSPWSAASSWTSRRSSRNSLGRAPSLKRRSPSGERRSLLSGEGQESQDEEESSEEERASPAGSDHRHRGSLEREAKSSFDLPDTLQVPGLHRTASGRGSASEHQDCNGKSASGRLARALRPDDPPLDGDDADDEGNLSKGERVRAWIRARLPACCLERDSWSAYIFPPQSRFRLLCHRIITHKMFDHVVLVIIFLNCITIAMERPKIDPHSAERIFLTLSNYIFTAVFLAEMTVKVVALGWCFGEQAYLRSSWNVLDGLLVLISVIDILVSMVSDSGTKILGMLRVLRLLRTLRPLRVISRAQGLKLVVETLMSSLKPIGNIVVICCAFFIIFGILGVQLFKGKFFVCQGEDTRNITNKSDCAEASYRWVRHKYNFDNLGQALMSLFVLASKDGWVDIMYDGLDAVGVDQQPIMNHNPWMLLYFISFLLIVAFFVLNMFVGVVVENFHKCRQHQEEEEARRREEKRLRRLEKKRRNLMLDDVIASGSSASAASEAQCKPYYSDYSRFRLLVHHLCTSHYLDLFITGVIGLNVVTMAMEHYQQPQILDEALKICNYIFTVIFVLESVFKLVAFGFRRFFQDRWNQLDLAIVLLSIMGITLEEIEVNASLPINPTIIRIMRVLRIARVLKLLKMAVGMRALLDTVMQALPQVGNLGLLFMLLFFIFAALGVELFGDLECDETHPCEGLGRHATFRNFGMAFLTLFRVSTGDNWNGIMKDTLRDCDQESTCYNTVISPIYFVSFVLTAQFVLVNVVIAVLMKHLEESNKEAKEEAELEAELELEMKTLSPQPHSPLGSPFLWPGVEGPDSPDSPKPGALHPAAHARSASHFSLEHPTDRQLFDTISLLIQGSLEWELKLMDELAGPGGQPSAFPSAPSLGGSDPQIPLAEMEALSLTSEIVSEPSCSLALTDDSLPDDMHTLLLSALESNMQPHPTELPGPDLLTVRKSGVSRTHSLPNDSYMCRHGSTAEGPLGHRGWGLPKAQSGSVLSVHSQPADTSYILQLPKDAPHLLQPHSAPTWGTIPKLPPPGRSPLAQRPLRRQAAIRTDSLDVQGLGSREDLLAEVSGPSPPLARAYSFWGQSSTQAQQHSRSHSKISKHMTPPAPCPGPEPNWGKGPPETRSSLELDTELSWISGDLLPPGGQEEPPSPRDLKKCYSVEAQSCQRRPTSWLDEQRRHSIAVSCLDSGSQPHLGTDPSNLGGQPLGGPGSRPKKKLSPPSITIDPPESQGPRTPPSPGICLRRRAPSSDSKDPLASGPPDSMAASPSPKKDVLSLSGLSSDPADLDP
Excerpt: as §1

CAv1.2 = CAv1.2 (Homo sapiens, UniProt Q13936); test: L-type (CAv1.2) channel blocking, FLIPR data (Table 6)
[3] = closed state, read-out: CAv2.2 IC50 Closed
[4] = inactivated state, read-out: CAv2.2 IC50 Inact.
[5] = CAv3.2, closed state, read-out: CAv3.2 IC50 Closed
[6] = CAv3.2, inactivated state, read-out: CAv3.2 IC50 Inact.
[7] = closed state, read-out: CAv1.2 IC50 Closed
[8] = inactivated state, read-out: CAv1.2 IC50 Inact.

IC50 (Human Cav 2.2 channels; [3])	IC50 (Human Cav 2.2 channels; [4])	CAv2.2 IC50 Ratio closed/inact. (Human Cav 2.2 channels)	IC50 (T-type calcium channel [1]; [5])	IC50 (T-type calcium channel [1]; [6])	CAv3.2 IC50 Ratio closed/inact. (T-type calcium channel [1])	IC50 (T-type calcium channel [2])	Compound	IC50 (CAv1.2; [7])	IC50 (CAv1.2; [8])	CAv1.2 IC50 Ratio closed/inact. (CAv1.2)
10 µM	5.24 µM	1.9	≥ 10 µM	8.42 µM	1.2	≥ 10 µM	Cn1nc(C(F)(F)F)cc1C(=O)N1CC(CS(=O)(=O)c2cc(F)cc(C(F)(F)F)c2)C1 [Compound 748]	≥ 10 µM	≥ 10 µM	
2.33 µM	0.17 µM	13.7	≥ 10 µM	0.74 µM	13.5	3.37 µM	CC(C)([C@H]1C[C@H](CNc2ccc(F)c(Cl)c2)C1)S(=O)(=O)c1cccc(C(F)(F)F)c1 [Compound 750]	3.42 µM	0.99 µM	3.5
3.93 µM	0.3 µM	13.1	≥ 10 µM	1.48 µM	6.8	4.53 µM	CC(C)([C@H]1C[C@H](CNc2ccc(Cl)c(F)c2)C1)S(=O)(=O)c1cccc(C(F)(F)F)c1 [Compound 751]	4.72 µM	1.35 µM	3.5
3.7 µM	0.28 µM	13.2	5.86 µM	1.88 µM	3.1	4.91 µM	CC(C)([C@H]1C[C@H](CNc2cc(C(F)(F)F)n[nH]2)C1)S(=O)(=O)c1cccc(C(F)(F)F)c1 [Compound 752]	8.6 µM	2.81 µM	3.1
3.8 µM	0.33 µM	11.5	≥ 10 µM	1.63 µM	6.1	4.45 µM	CC(C)([C@H]1C[C@@H](CNc2ccc(F)c(Cl)c2)C1)S(=O)(=O)c1cccc(C(F)(F)F)c1 [Compound 753]	7.42 µM	1.51 µM	4.9
4.48 µM	0.75 µM	6	≥ 10 µM	2.49 µM	4	5.25 µM	CC(C)([C@H]1C[C@@H](CNc2cc(C(F)(F)F)n[nH]2)C1)S(=O)(=O)c1cccc(C(F)(F)F)c1 [Compound 755]	8.17 µM	3.88 µM	2.1
3.9 µM	0.39 µM	10	3.52 µM	1.2 µM	2.9	1.59 µM	CC(C)([C@H]1C[C@@H](C(=O)Nc2ccc(C(F)(F)F)cc2)C1)S(=O)(=O)c1cccc(C(F)(F)F)c1 [Compound 756]	4.19 µM	1.37 µM	3.1
5.79 µM	0.55 µM	10.5	6.06 µM	2.29 µM	2.6	2.22 µM	CC(C)([C@H]1C[C@@H](C(=O)Nc2cc(C(F)(F)F)n[nH]2)C1)S(=O)(=O)c1cccc(C(F)(F)F)c1 [Compound 757]	≥ 10 µM	5.39 µM	1.9
2.54 µM	0.39 µM	6.5	4.06 µM	1.97 µM	2.1	2.13 µM	CC(C)([C@H]1C[C@@H](C(=O)Nc2ccc(C(F)(F)F)cn2)C1)S(=O)(=O)c1cccc(C(F)(F)F)c1 [Compound 758]	3.56 µM	1.88 µM	1.9
3.67 µM	0.48 µM	7.6	3.55 µM	2.07 µM	1.7	2.27 µM	CC(C)([C@H]1C[C@@H](C(=O)Nc2ccc(C(F)(F)F)nc2)C1)S(=O)(=O)c1cccc(C(F)(F)F)c1 [Compound 759]	5.1 µM	2.18 µM	2.3
2.87 µM	0.19 µM	15.1	4.62 µM	0.73 µM	6.3	2.8 µM	CC(C)([C@H]1C[C@H](C(=O)Nc2ccc(C(F)(F)F)nc2)C1)S(=O)(=O)c1cccc(C(F)(F)F)c1 [Compound 760]	≥ 10 µM	3.55 µM	2.8
1.6 µM	0.15 µM	10.7	≥ 10 µM	1.71 µM	5.8	4.19 µM	CC(C)([C@H]1C[C@H](C(=O)Nc2ccc(Cl)cn2)C1)S(=O)(=O)c1cccc(C(F)(F)F)c1 [Compound 761]	8.54 µM	4.61 µM	1.9
6.26 µM	0.39 µM	16.1	≥ 10 µM	1.84 µM	5.4	2.63 µM	CC(C)([C@H]1C[C@H](C(=O)Nc2cc(C(F)(F)F)n[nH]2)C1)S(=O)(=O)c1cccc(C(F)(F)F)c1 [Compound 762]	≥ 10 µM	7.23 µM	1.4
2.04 µM	0.27 µM	7.6	7.02 µM	0.96 µM	7.3	6.44 µM	CC(C)([C@H]1C[C@H](C(=O)Nc2ccc(C(F)(F)F)cc2Cl)C1)S(=O)(=O)c1cccc(C(F)(F)F)c1 [Compound 763]	≥ 10 µM	2.19 µM	4.6
1.02 µM	0.11 µM	9.3	2.9 µM	0.43 µM	6.7	0.78 µM	CC(C)([C@H]1C[C@H](C(=O)NCc2ccc(Oc3ccccc3)cc2)C1)S(=O)(=O)c1cccc(C(F)(F)F)c1 [Compound 764]	3.24 µM	0.83 µM	3.9
3.4 µM	0.42 µM	8.1	4.6 µM	1.5 µM	3.1	2.01 µM	CC(C)([C@H]1C[C@H](C(=O)Nc2ccc(C(F)(F)F)cc2)C1)S(=O)(=O)c1cccc(C(F)(F)F)c1 [Compound 765]	6.71 µM	2.25 µM	3
1.69 µM	0.13 µM	13	4.2 µM	2.38 µM	1.8	2.65 µM	CC(C)([C@H]1C[C@H](C(=O)Nc2ccc(C(F)(F)F)cn2)C1)S(=O)(=O)c1cccc(C(F)(F)F)c1 [Compound 766]	3.72 µM	2.07 µM	1.8
5.37 µM	0.57 µM	9.4	≥ 10 µM	9.57 µM	1	≥ 10 µM	CC(C)([C@H]1C[C@H](C(=O)NCc2ccc(C(F)(F)F)nc2)C1)S(=O)(=O)c1cccc(C(F)(F)F)c1 [Compound 767]	≥ 10 µM	5.14 µM	1.9
4.17 µM	0.39 µM	10.7	6.82 µM	3.56 µM	1.9	4.57 µM	Cc1nc(C(F)(F)F)ccc1NC(=O)[C@H]1C[C@H](C(C)(C)S(=O)(=O)c2cccc(C(F)(F)F)c2)C1 [Compound 768]	≥ 10 µM	4.42 µM	2.3
4.98 µM	0.34 µM	14.6	5.36 µM	3.78 µM	1.4	4.72 µM	Cn1nc(C(F)(F)F)cc1NC(=O)[C@H]1C[C@H](C(C)(C)S(=O)(=O)c2cccc(C(F)(F)F)c2)C1 [Compound 769]	8.49 µM	1.47 µM	5.8
10 µM	2.01 µM	5	5.44 µM	3.04 µM	1.8	≥ 10 µM	O=C(NC[C@H]1C[C@H](S(=O)(=O)c2cccc(Cl)c2)C1)c1ccc(C(F)(F)F)cc1 [Compound 771]	≥ 10 µM	≥ 10 µM	
10 µM	5.78 µM	1.7	8.66 µM	1.62 µM	5.3	≥ 10 µM	O=C(NC[C@H]1C[C@H](S(=O)(=O)c2cccc(Cl)c2)C1)c1ccc(OCC(F)(F)F)nc1 [Compound 775]	≥ 10 µM	≥ 10 µM	
